Patent US5368864A, “Formulation of oxypurinol and/or its alkali and alkaline earth salts” (Henning Berlin GmbH Chemie- und Pharmawerk, priority 1988, dated 1994)
Each block holds one compound with its values, some of them ahead of it.

What was measured:
[1] = cited from earlier work
[2] = associated with sparing solubility; cited from earlier work
[3] = Solubility and pH of aqueous solutions (background statements); type: physicochemical
[4] = Dissolution test (USP XXI dissolution tester) of oxypurinol sodium monohydrate and formulations in 0.1 N hydrochloric acid, spectrophotometric at 245 nm; type: physicochemical; settings: for Dissolved amount of active substance (cumulated values): 0.1 N HCl, 37° C.
Experimental: The dispersion of solids containing oxypurinol was mixed with the adjuvants indicated, and pressed to give tablets having a content of 150 mg of active substance. Two tablets, corresponding to 300 mg of oxypurinol sodium monohydrate, were tested for liberation of active substance.
(§1) The forms according to the invention were tested for solubility and rate of dissolution, respectively, in comparison to crystalline oxypurinol sodium monohydrate finely powdered in a mortar.
United States Pharmacopoeia (USP XXI)
0.1 N hydrochloric acid
Measurements were effected spectrophotometrically at 245 nm.

[5] = Solubility as a function of pH value and time as compared to crystalline active substance; type: physicochemical; settings: solids dispersion is test 3; for solubility at 1 h: 60 minutes
Experimental: as §1
Solubility according to example 1 (test 3) as a function of pH value and
as compared to crystalline active substance (values in mg/liter)

SMILES: O=c1[nH]c(=O)c2c[nH]nc2[nH]1 [Oxypurinol, 4,6-dihydroxypyrazolo[3,4-d]pyrimidine]
- solubility in water and digestive juice [1]: sparingly soluble
- absorbability [2]: insufficient absorbability

- pH value of aqueous solutions ([3]; aqueous solution): 9.5
- solubility ([3]; water, 25° C., read-out: concentration permitted in aqueous solutions): ~15000 µg/mL
- solubility at 5 min ([4]; 0.1 n hcl, after 5 minutes): 43 µg/mL
- solubility at 1 h ([4]; 0.1 n hcl, after 60 minutes): 142 µg/mL
- solubility at 24 h ([4]; 0.1 n hcl, after 24 hours, read-out: maximum solubility): ~280 µg/mL
- solubility at 48 h ([4]; 0.1 n hcl, after another 24 hours, read-out: solubility as a constant for the substance): ~260 µg/mL
- Dissolved amount of active substance (cumulated values) ([4]; 5 min): 43 mg/L
- Dissolved amount of active substance (cumulated values) ([4]; 10 min): 62 mg/L
- Dissolved amount of active substance (cumulated values) ([4]; 20 min): 88 mg/L
- Dissolved amount of active substance (cumulated values) ([4]; 30 min): 115 mg/L
- Dissolved amount of active substance (cumulated values) ([4]; 45 min): 126 mg/L
- Dissolved amount of active substance (cumulated values) ([4]; 60 min): 142 mg/L
- Dissolved amount of active substance (cumulated values) ([4]; 180 min): 207 mg/L
- Dissolved amount of active substance (cumulated values) ([4]; 24 hrs): 280 mg/L
- Dissolved amount of active substance (cumulated values) ([4]; 48 hrs): 263 mg/L
- rate of dissolution ([4]; measurement time of 5 minutes): about 43 mg/5 min
- solubility at 5 min ([5]; pH = 1.5): 43 µg/mL
- solubility at 10 min ([5]; pH = 1.5): 62 µg/mL
- solubility at 5 min ([5]; pH = 3.0): 81 µg/mL
- solubility at 10 min ([5]; pH = 3.0): 110 µg/mL
- solubility at 1 h ([5]; pH = 3.0): 222 µg/mL
- solubility at 5 min ([5]; pH = 4.5): 85 µg/mL
- solubility at 10 min ([5]; pH = 4.5): 110 µg/mL
- solubility at 1 h ([5]; pH = 4.5): 243 µg/mL
- solubility at 5 min ([5]; pH = 6.5): 243 µg/mL
- solubility at 10 min ([5]; pH = 6.5): 261 µg/mL
- solubility at 1 h ([5]; pH = 6.5): 290 µg/mL
SMILES: O=c1[nH]c(=O)c2c[nH]nc2[nH]1 [oxypurinol sodium monohydrate, Oxypurinol sodium monohydrate]
